Source: US20260347347A1, “2-AZA-AND 2-OXABICYCLO[2.1.1]HEXANE DERIVATIVES AS FACTOR XIIA ENZYME INHIBITORS” (KALVISTA PHARMACEUTICALS LIMITED, priority 2022, published 2026)
pIC50: −log10 of the molar value.

Each compound was assayed against T1, Human Factor XIIa (Homo sapiens, UniProt P00748) (assay: Determination of FXIIa inhibition (in vitro IC50 assay, fluorogenic substrate H-DPro-Phe-Arg-AFC)). Details: human Factor XIIa; fluorogenic substrate H-DPro-Phe-Arg-AFC at Km concentration; 5 min, 25 °C; class symbols H1/H2 for % inhibition at top concentration.
T1 construct: purchased Enzyme Research Laboratories
T1 sequence (P00748 373-615 limits assumed): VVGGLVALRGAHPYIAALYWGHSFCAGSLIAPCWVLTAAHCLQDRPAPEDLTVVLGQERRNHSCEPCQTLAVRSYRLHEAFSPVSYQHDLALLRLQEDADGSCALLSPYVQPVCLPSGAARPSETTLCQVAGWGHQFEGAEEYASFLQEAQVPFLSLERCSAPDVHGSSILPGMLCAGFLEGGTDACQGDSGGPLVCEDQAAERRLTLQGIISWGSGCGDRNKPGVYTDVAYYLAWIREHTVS
T1 sequence (P00748 20-372 partner limits assumed): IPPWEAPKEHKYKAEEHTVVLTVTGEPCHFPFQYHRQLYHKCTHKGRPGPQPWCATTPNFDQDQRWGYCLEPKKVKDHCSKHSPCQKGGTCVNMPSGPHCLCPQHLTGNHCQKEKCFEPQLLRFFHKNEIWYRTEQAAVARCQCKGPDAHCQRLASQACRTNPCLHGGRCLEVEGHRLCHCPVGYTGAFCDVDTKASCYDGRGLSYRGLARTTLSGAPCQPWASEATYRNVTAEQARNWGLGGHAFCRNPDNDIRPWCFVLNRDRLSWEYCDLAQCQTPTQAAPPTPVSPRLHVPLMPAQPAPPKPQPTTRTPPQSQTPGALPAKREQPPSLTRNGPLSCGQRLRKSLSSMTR
Type: biochemical
Procedure: In vitro inhibition of Factor XIIa was determined using an IC50 assay based on standard literature methods (see e.g Baeriswyl et al., ACS Chem. Biol., 2015, 10 (8) 1861; Bouckaert et al., European Journal of Medicinal Chemistry 110 (2016) 181). Human Factor XIIa (Enzyme Research Laboratories) was incubated at 25 °C with the fluorogenic substrate H-DPro-Phe-Arg-AFC (Peptide Protein Science) and various concentrations of the test compound. Protease activity was measured by monitoring the accumulation of liberated fluorescence from the substrate over 5 min at 25 °C. The linear rate of fluorescence increase per minute was expressed as percentage (%) activity. The Km for the cleavage of the substrate by FXIIa was determined by standard transformation of the Michaelis-Menten equation. The compound inhibitor assays were performed at substrate Km concentration. IC50 values were calculated as the concentration of inhibitor giving 50% inhibition (IC50) of the uninhibited enzyme activity (100%).

Row | SMILES | Human FXIIa inhibition (compounds that did not achieve 50% inhibition)
1 | Cc1cc(OCC23CN(C(=O)NC4(c5ccccc5)CC4)C(CNc4cccnc4)(C2)C3)cc(=O)n1C [Example 55, 4-(((1,6-dimethyl-2-oxo-1,2-dihydropyridin-4-yl)oxy)methyl)-N-(1-phenylcyclopropyl)-1-((pyridin-3-ylamino)methyl)-2-azabicyclo[2.1.1]hexane-2-carboxamide] | H2 (>20% inhibition @ 100 μM)

Same assay, conditions: human Factor XIIa; fluorogenic substrate H-DPro-Phe-Arg-AFC at Km concentration; 5 min, 25 °C; class symbols; read-out: Human FXIIa IC50

Row | SMILES | pIC50
2 | Cn1ccc(OCC23CN(C(=O)N4CCCc5ccccc54)C(CNc4cccc5c(N)nccc45)(C2)C3)cc1=O [Example 36, 4-((1-(((1-aminoisoquinolin-5-yl)amino)methyl)-2-(1,2,3,4-tetrahydroquinoline-1-carbonyl)-2-azabicyclo[2.1.1]hexan-4-yl)methoxy)-1-methylpyridin-2(1H)-one] | 6.52 to 7.00
3 | Cn1ccc(OCC23CN(C(=O)N4CCc5ccccc5C4)C(CNc4cccc5c(N)nccc45)(C2)C3)cc1=O [Example 37, 4-((1-(((1-aminoisoquinolin-5-yl)amino)methyl)-2-(1,2,3,4-tetrahydroisoquinoline-2-carbonyl)-2-azabicyclo[2.1.1]hexan-4-yl)methoxy)-1-methylpyridin-2(1H)-one] | 6.52 to 7.00
4 | Cn1ccc(OCC23CN(C(=O)Nc4ccc5c(c4)CCO5)C(CNc4cccc5c(N)nccc45)(C2)C3)cc1=O [Example 38, 1-(((1-aminoisoquinolin-5-yl)amino)methyl)-N-(2,3-dihydrobenzofuran-5-yl)-4-(((1-methyl-2-oxo-1,2-dihydropyridin-4-yl)oxy)methyl)-2-azabicyclo[2.1.1]hexane-2-carboxamide] | 8.00 to 9.00
5 | COc1ccc2c(c1)CCCN2C(=O)N1CC2(COc3ccn(C)c(=O)c3)CC1(CNc1cccc3c(N)nccc13)C2 [Example 39, 4-((1-(((1-aminoisoquinolin-5-yl)amino)methyl)-2-(6-methoxy-1,2,3,4-tetrahydroquinoline-1-carbonyl)-2-azabicyclo[2.1.1]hexan-4-yl)methoxy)-1-methylpyridin-2(1H)-one] | 6.52 to 7.00
6 | Cc1cc(OCC23CN(C(=O)N(C)[C@@H]4CCOC4)C(CNc4cccc5c(N)nccc45)(C2)C3)cc(=O)n1C [Example 40, (R)-1-(((1-aminoisoquinolin-5-yl)amino)methyl)-4-(((1,6-dimethyl-2-oxo-1,2-dihydropyridin-4-yl)oxy)methyl)-N-methyl-N-(tetrahydrofuran-3-yl)-2-azabicyclo [2.1.1]hexane-2-carboxamide] | 7.00 to 8.00
7 | Cc1cc(OCC23CN(C(=O)N(C)[C@H]4CCOC4)C(CNc4cccc5c(N)nccc45)(C2)C3)cc(=O)n1C [Example 41, (S)-1-(((1-aminoisoquinolin-5-yl)amino)methyl)-4-(((1,6-dimethyl-2-oxo-1,2-dihydropyridin-4-yl)oxy)methyl)-N-methyl-N-(tetrahydrofuran-3-yl)-2-azabicyclo[2.1.1]hexane-2-carboxamide] | 7.00 to 8.00
8 | C[C@@H](c1ccccc1)N(C)C(=O)N1CC2(COc3ccn(C)c(=O)c3)CC1(CNc1cccc3c(N)nccc13)C2 [Example 42, (S)-1-(((1-aminoisoquinolin-5-yl)amino)methyl)-N-methyl-4-(((1-methyl-2-oxo-1,2-dihydropyridin-4-yl)oxy)methyl)-N-(1-phenylethyl)-2-azabicyclo[2.1.1]hexane-2-carboxamide] | 7.00 to 8.00
9 | C[C@H](c1ccccc1)N(C)C(=O)N1CC2(COc3ccn(C)c(=O)c3)CC1(CNc1cccc3c(N)nccc13)C2 [Example 43, (R)-1-(((1-aminoisoquinolin-5-yl)amino)methyl)-N-methyl-4-(((1-methyl-2-oxo-1,2-dihydropyridin-4-yl)oxy)methyl)-N-(1-phenylethyl)-2-azabicyclo[2.1.1]hexane-2-carboxamide] | 8.00 to 9.00
10 | Cn1ccc(OCC23CN(C(=O)N4CC[C@@H](c5ccccc5)C4)C(CNc4cccc5c(N)nccc45)(C2)C3)cc1=O [Example 44, (S)-4-((1-(((1-aminoisoquinolin-5-yl)amino)methyl)-2-(3-phenylpyrrolidine-1-carbonyl)-2-azabicyclo[2.1.1]hexan-4-yl)methoxy)-1-methylpyridin-2(1H)-one] | 8.00 to 9.00
11 | Cc1cc(OCC23CN(C(=O)N4CC[C@@H](c5ccccc5)C4)C(CNc4cccc5c(N)nccc45)(C2)C3)cc(=O)n1C [Example 45, (S)-4-((1-(((1-aminoisoquinolin-5-yl)amino)methyl)-2-(3-phenylpyrrolidine-1-carbonyl)-2-azabicyclo[2.1.1]hexan-4-yl)methoxy)-1,6-dimethylpyridin-2(1H)-one] | 8.00 to 9.00
12 | Cc1cc(OCC23CN(C(=O)N4CC5(CCOCC5)C4)C(CNc4cccc5c(N)nccc45)(C2)C3)cc(=O)n1C [Example 46, 4-((1-(((1-aminoisoquinolin-5-yl)amino)methyl)-2-(7-oxa-2-azaspiro[3.5]nonane-2-carbonyl)-2-azabicyclo[2.1.1]hexan-4-yl)methoxy)-1,6-dimethylpyridin-2(1H)-one] | 7.00 to 8.00
13 | Cc1cc(OCC23CN(C(=O)N(C)C[C@@H]4CCOC4)C(CNc4cccc5c(N)nccc45)(C2)C3)cc(=O)n1C [Example 47, (S)-1-(((1-aminoisoquinolin-5-yl)amino)methyl)-4-(((1,6-dimethyl-2-oxo-1,2-dihydropyridin-4-yl)oxy)methyl)-N-methyl-N-((tetrahydrofuran-3-yl)methyl)-2-azabicyclo[2.1.1]hexane-2-carboxamide] | 7.00 to 8.00
14 | Cc1cc(OCC23CN(C(=O)N(C)C[C@H]4CCOC4)C(CNc4cccc5c(N)nccc45)(C2)C3)cc(=O)n1C [Example 48, (R)-1-(((1-aminoisoquinolin-5-yl)amino)methyl)-4-(((1,6-dimethyl-2-oxo-1,2-dihydropyridin-4-yl)oxy)methyl)-N-methyl-N-((tetrahydrofuran-3-yl)methyl)-2-azabicyclo[2.1.1]hexane-2-carboxamide] | 7.00 to 8.00
15 | Cc1cc(OCC23CN(C(=O)N4CC[C@H](c5ccccc5)C4)C(CNc4cccc5c(N)nccc45)(C2)C3)cc(=O)n1C [Example 49, (R)-4-((1-(((1-aminoisoquinolin-5-yl)amino)methyl)-2-(3-phenylpyrrolidine-1-carbonyl)-2-azabicyclo[2.1.1]hexan-4-yl)methoxy)-1,6-dimethylpyridin-2(1H)-one] | 7.00 to 8.00
16 | Cn1ccc(OCC23CN(C(=O)N4Cc5ccccc5C4)C(CNc4cccc5c(N)nccc45)(C2)C3)cc1=O [Example 50, 4-((1-(((1-aminoisoquinolin-5-yl)amino)methyl)-2-(isoindoline-2-carbonyl)-2-azabicyclo[2.1.1]hexan-4-yl)methoxy)-1-methylpyridin-2(1H)-one] | 7.00 to 8.00
17 | Cn1ccc(OCC23CN(C(=O)N4CC5(CCC5)C4)C(CNc4cccc5c(N)nccc45)(C2)C3)cc1=O [Example 51, 4-((1-(((1-aminoisoquinolin-5-yl)amino)methyl)-2-(2-azaspiro[3.3]heptane-2-carbonyl)-2-azabicyclo[2.1.1]hexan-4-yl)methoxy)-1-methylpyridin-2(1H)-one] | 7.00 to 8.00
18 | Cn1ccc(OCC23CN(C(=O)Nc4ccc5c(c4)CCCO5)C(CNc4cccc5c(N)nccc45)(C2)C3)cc1=O [Example 52, 1-(((1-aminoisoquinolin-5-yl)amino)methyl)-N-(chroman-6-yl)-4-(((1-methyl-2-oxo-1,2-dihydropyridin-4-yl)oxy)methyl)-2-azabicyclo[2.1.1]hexane-2-carboxamide] | 9.00 to 10.00
19 | CN(CC1CC1)C(=O)N1CC2(COc3ccn(C)c(=O)c3)CC1(CNc1cccc3c(N)nccc13)C2 [Example 53, 1-(((1-aminoisoquinolin-5-yl)amino)methyl)-N-(cyclopropylmethyl)-N-methyl-4-(((1-methyl-2-oxo-1,2-dihydropyridin-4-yl)oxy)methyl)-2-azabicyclo[2.1.1]hexane-2-carboxamide] | 7.00 to 8.00
20 | Cn1ccc(OCC23CN(C(=O)N4CCCCC4)C(CNc4cccc5c(N)nccc45)(C2)C3)cc1=O [Example 54, 4-((1-(((1-aminoisoquinolin-5-yl)amino)methyl)-2-(piperidine-1-carbonyl)-2-azabicyclo[2.1.1]hexan-4-yl)methoxy)-1-methylpyridin-2(1H)-one] | 7.00 to 8.00
21 | Cc1ncccc1NCC12CC(COc3cc(C)n(C)c(=O)c3)(CN1C(=O)NC1(c3ccccc3)CC1)C2 [Example 56, 4-(((1,6-dimethyl-2-oxo-1,2-dihydropyridin-4-yl)oxy)methyl)-1-(((2-methylpyridin-3-yl)amino)methyl)-N-(1-phenylcyclopropyl)-2-azabicyclo[2.1.1]hexane-2-carboxamide] | 4.00 to 4.40
